# Source: EP1681292A1, “3-Amino-6-aryl(or 6-heteroaryl)-thieno¬2,3-b|pyridin-2-carboxylic acid amides, pharmaceutical compositions comprising the said and their use as inhibitors of TNFalpha release” (IBFB Pharma GmbH, priority 2005, dated 2006)
# Test system: TNFα-Freisetzung
# Assay: Inhibition of TNFα release after LPS stimulation of human whole blood (ELISA)
# Format: cell-based
# Details: human whole blood diluted 1:5 with RPMI 1640, LPS (Salmonella abortus equi) 1 µg/ml, 24 h at 37°C, TNFα in supernatant by ELISA; read-out: Hemmung der TNFα-Freisetzung, EC50
# Description: Methodenbeschreibung der Hemmung der TNFα Freisetzung nach LPS Stimulation von humanem Vollblut
# Die Stimulierung isolierter Leukozyten für die Freisetzung von Zytokinen kann auf verschiedenen Wegen erfolgen. Lipopolysaccharide (LPS) stellen einen Stimulus für die Untersuchung der Freisetzung von TNFα dar. LPS ist Bestandteil bakterieller Zellwände und wird beim Abtöten der Bakterien (durch Antibiotika oder das natürliche Immunsystem) freigesetzt. LPS stimuliert insbesondere die Aktivität phagozytierender Leukozyten (Gewebsmakrophagen, Granulozyten, Monozyten) und verursacht die Infiltration von Leukozyten vom peripheren Blut in das betroffene Gewebe. Ein Zytokin von besonderer Bedeutung für diese Mechanismen ist TNFα, das in großen Mengen durch die betroffenen Zellen sezerniert wird. Hauptquelle dabei sind Monozyten und Makrophagen. TNFα initiiert und prolongiert den Entzündungsprozess im Zusammenspiel mit anderen Mediatoren.
# Für die Untersuchung des Effektes auf die LPS-induzierte TNFα-Freisetzung wurde eine Methode verwendet, die von MARX et al. (Marx D, Tassabehji M, Heer S, Hüttenbrink KB, Szelenyi I (2002) Pulmonary Pharmacology & Therapeutics 15 7-15) beschrieben wurde. Die Methodenbeschreibung in verkürzter Darstellung: Humanes Blut verschiedener Spendern wird durch Zusatz von 10 mM Na-Citrat ungerinnbar gemacht und 1:5 mit RPMI 1640 Zellkulturmedium verdünnt. Die Verbindungen der allgemeinen Formel 1 sowie die Kontrollsubstanzen (z.B. Dexamethason) wurden den Blutproben in verschiedenen Konzentrationen hinzugefügt. 15 Minuten später wurden die Leukozyten durch Zusatz von Lipopolysacchariden (LPS) (aus Salmonella abortus equi) in einer Endkonzentration von 1 µg/ml stimuliert. Nach Inkubation der Testansätze für 24 Stunden bei 37°C. und unter 5% CO2 in wassergesättigter Luft, wurde das Blut zentrifugiert und die Konzentration an TNFα im zellfreien Überstand unter Verwendung eines käuflichen ELISA (BD Biosciences) nach Angaben des Herstellers exakt vermessen.
row,EC50,Compound
1,< 5 nM,"CSc1ccc(-c2cc(C)c3c(N)c(C(N)=O)sc3n2)cc1 [3-Amino-4-methyl-6-(4-methylthio-phenyl)-thieno[2,3-b]pyridin-2-carbonsäureamid]"
2,< 5 nM,"NC(=O)c1sc2nc(-c3cccs3)cc(C(F)(F)F)c2c1N [3-Amino-6-(2-thienyl)-4-trifluormethyl-thieno[2,3-b]pyridin-2-carbonsäureamid]"
3,< 5 nM,"Cc1cc(-c2ccc3c(c2)OCCO3)nc2sc(C(N)=O)c(N)c12 [3-Amino-6-(3,4-dioxoethylen-phenyl)-4-methyl-thieno[2,3-b]pyridin-2-carbonsäureamid]"
4,< 5 nM,"NC(=O)c1sc2nc(-c3ccc4c(c3)OCCO4)cc(C(F)(F)F)c2c1N [3-Amino-6-(3,4-dioxoethylen-phenyl)-4-trifluormethyl-thieno[2,3-b]pyridin-2-carbonsäureamid]"
5,< 5 nM,"Cc1cc(-c2ccc(Cl)cc2)nc2sc(C(N)=O)c(N)c12 [3-Amino-6-(4-chlor-phenyl)-4-methyl-thieno[2,3-b]pyridin-2-carbonsäureamid]"
6,< 5 nM,"CSc1ccc(-c2cc(C(F)(F)F)c3c(N)c(C(N)=O)sc3n2)cc1 [3-Amino-6-(4-methylthio-phenyl)-4-trifluormethyl-thieno[2,3-b]pyridin-2-carbonsäureamid]"
7,< 5 nM,"Cc1cccc(-c2cc(C)c3c(N)c(C(N)=O)sc3n2)c1 [Beispiel 2, 3-Amino-4-methyl-6-(3-methyl-phenyl)-thieno[2,3-b]pyridin-2-carbonsäureamid]"
8,< 5 nM,"Cc1ccc(-c2cc(C)c3c(N)c(C(N)=O)sc3n2)cc1 [Beispiel 3, 3-Amino-4-methyl-6-(4-methyl-phenyl)-thieno[2,3-b]pyridin-2-carbonsäureamid]"
9,< 5 nM,"COc1ccc(-c2cc(C)c3c(N)c(C(N)=O)sc3n2)cc1 [Beispiel 4, 3-Amino-4-methyl-6-(4-methoxy-phenyl)-thieno[2,3-b]pyridin-2-carbonsäureamid]"
10,< 5 nM,"Cc1cc(-c2ccc(F)cc2)nc2sc(C(N)=O)c(N)c12 [Beispiel 6, 3-Amino-6-(4-fluor-phenyl)-4-methyl-thieno[2,3-b]pyridin-2-carbonsäureamid]"
11,< 5 nM,"Cc1cc(-c2ccc(Br)cc2)nc2sc(C(N)=O)c(N)c12 [Beispiel 7, 3-Amino-6-(4-brom-phenyl)-4-methyl-thieno[2,3-b]pyridin-2-carbonsäureamid]"
12,< 5 nM,"Cc1cc(-c2ccccc2)nc2sc(C(N)=O)c(N)c12 [Beispiel 8, 3-Amino-4-methyl-6-phenyl-thieno[2,3-b]pyridin-2-carbonsäureamid]"
13,< 5 nM,"Cc1cc(-c2ccc3c(c2)OCO3)nc2sc(C(N)=O)c(N)c12 [Beispiel 9, 3-Amino-6-(3,4-dioxomethylen-phenyl)-4-methyl-thieno[2,3-b]pyridin-2-carbonsäureamid]"
14,< 5 nM,"Cc1cc(-c2cccs2)nc2sc(C(N)=O)c(N)c12 [Beispiel 10, 3-Amino-4-methyl-6-(2-thienyl)-thieno[2,3-b]pyridin-2-carbonsäureamid]"
15,< 5 nM,"Cc1ccc(-c2cc(C(F)F)c3c(N)c(C(N)=O)sc3n2)cc1 [Beispiel 11, 3-Amino-4-difluormethyl-6-(4-methyl-phenyl)-thieno[2,3-b]pyridin-2-carbonsäureamid]"
16,< 5 nM,"CC(C)c1ccc(-c2cc(C(F)(F)F)c3c(N)c(C(N)=O)sc3n2)cc1 [Beispiel 12, 3-Amino-6-(4-isopropyl-phenyl)-4-trifluormethyl-thieno[2,3-b]pyridin-2-carbonsäureamid]"

row,EC50,Compound
1,< 5 nM,"NC(=O)c1sc2nc(-c3ccccc3)cc(C(F)(F)F)c2c1N [Beispiel 13, 3-Amino-6-phenyl-4-trifluormethyl-thieno[2,3-b]pyridin-2-carbonsäureamid]"
2,< 5 nM,"Cc1ccc(-c2cc(C(F)(F)F)c3c(N)c(C(N)=O)sc3n2)cc1 [Beispiel 14, 3-Amino-6-(4-methyl-phenyl)-4-trifluormethyl-thieno[2,3-b]pyridin-2-carbonsäureamid]"
3,< 5 nM,"CCc1ccc(-c2cc(C(F)(F)F)c3c(N)c(C(N)=O)sc3n2)cc1 [Beispiel 15, 3-Amino-6-(4-ethyl-phenyl)-4-trifluormethyl-thieno[2,3-b]pyridin-2-carbonsäureamid]"
4,< 5 nM,"CCCc1ccc(-c2cc(C(F)(F)F)c3c(N)c(C(N)=O)sc3n2)cc1 [Beispiel 16, 3-Amino-6-(4-propyl-phenyl)-4-trifluormethyl-thieno[2,3-b]pyridin-2-carbonsäureamid]"
5,< 5 nM,"Cc1ccc(-c2cc(C(F)(F)F)c3c(N)c(C(N)=O)sc3n2)cc1C [Beispiel 18, 3-Amino-6-(3,4-dimethyl-phenyl)-4-trifluormethyl-thieno[2,3-b]pyridin-2-carbonsäureamid]"
6,< 5 nM,"COc1ccc(-c2cc(C(F)(F)F)c3c(N)c(C(N)=O)sc3n2)cc1 [Beispiel 19, 3-Amino-6-(4-methoxy-phenyl)-4-trifluormethyl-thieno[2,3-b]pyridin-2-carbonsäureamid]"
7,< 5 nM,"CCOc1ccc(-c2cc(C(F)(F)F)c3c(N)c(C(N)=O)sc3n2)cc1 [Beispiel 20, 3-Amino-6-(4-ethoxy-phenyl)-4-trifluormethyl-thieno[2,3-b]pyridin-2-carbonsäureamid]"
8,< 5 nM,"NC(=O)c1sc2nc(-c3ccc(F)cc3)cc(C(F)(F)F)c2c1N [Beispiel 21, 3-Amino-6-(4-fluor-phenyl)-4-trifluormethyl-thieno[2,3-b]pyridin-2-carbonsäureamid]"
9,< 5 nM,"NC(=O)c1sc2nc(-c3ccc(Cl)cc3)cc(C(F)(F)F)c2c1N [Beispiel 22, 3-Amino-6-(4-chlor-phenyl)-4-trifluormethyl-thieno[2,3-b]pyridin-2-carbonsäureamid]"
10,< 5 nM,"NC(=O)c1sc2nc(-c3ccc(Br)cc3)cc(C(F)(F)F)c2c1N [Beispiel 23, 3-Amino-6-(4-brom-phenyl)-4-trifluormethyl-thieno[2,3-b]pyridin-2-carbonsäureamid]"
11,< 5 nM,"NC(=O)c1sc2nc(-c3ccc4ccccc4c3)cc(C(F)(F)F)c2c1N [Beispiel 25, 3-Amino-6-(2-naphthyl)-4-trifluormethyl-thieno[2,3-b]pyridin-2-carbonsäureamid]"
12,< 5 nM,"NC(=O)c1sc2nc(-c3ccc4c(c3)OCO4)cc(C(F)(F)F)c2c1N [Beispiel 26, 3-Amino-6-(3,4-dioxomethylen-phenyl)-4-trifluormethyl-thieno[2,3-b]pyridin-2-carbonsäureamid]"
13,< 5 nM,"CCc1cc(-c2ccc(C)cc2)nc2sc(C(N)=O)c(N)c12 [Beispiel 27, 3-Amino-4-ethyl-6-(4-methyl-phenyl)-thieno[2,3-b]pyridin-2-carbonsäureamid]"
14,< 5 nM,"CCc1cc(-c2ccc(Cl)cc2)nc2sc(C(N)=O)c(N)c12 [Beispiel 30, 3-Amino-6-(4-chlor-phenyl)-4-ethyl-thieno[2,3-b]pyridin-2-carbonsäureamid]"
15,< 5 nM,"CCc1cc(-c2ccc(SC)cc2)nc2sc(C(N)=O)c(N)c12 [Beispiel 31, 3-Amino-4-ethyl-6-(4-methylthio-phenyl)-thieno[2,3-b]pyridin-2-carbonsäureamid]"
